Test results reported in patent publication US12414940B2, “Method of treating malignant tumor by azabicyclic compound” (TAIHO PHARMACEUTICAL CO., LTD., priority 2018, dated 2025).

How the values were obtained:
[1] = system: progressive or unresectable GIST; conditions: group given regorafenib, third-line treatment of progressive or unresectable GIST; cited from earlier work
solid cancer patients [2] = assay: Phase I study in solid cancer patients: determination of maximum tolerated dose (MTD); type: in vivo, human; conditions: for MTD: oral
Procedure: (§1) Purpose: This study was conducted for the purpose of determining a maximum tolerated dose (MTD) and estimating a recommended dose (RD) and an administration method when compound 1 was administered with one cycle set to 21 days targeting solid cancer patients, and of evaluating safety and observing an antitumor effect when the compound 1 was administered with one cycle set to 21 days targeting the patients, for example.
(§2) Method: The compound 1 was repeatedly administered between meals once a day in Step 1, and orally administered between meals every other day in Step 2. In Step 1, the initial dose was set to 4.8 mg/m^2 (level 1), and the dose of the compound 1 at each level was determined depending on a body surface area. The initial dose of Step 2 (level 1 of Step 2) was set to MTD (mg/m^2/day) of Step 1. The study was continued until the disease progressed or an intolerable adverse event occurred.
The dose (mg/body) to a study subject was calculated as described below. Dose (mg/body)=Dose (mg/m^2)×Body surface area (m^2)
The body surface area (BSA) was calculated to the second decimal place by rounding a value off to two decimal places using the formula of DuBois given below. The dose (mg/body) was calculated to an integer by rounding a value off to the closest whole number, and less than 2 mg was cut off because the minimum tablet dose in this study was 2 mg. BSA=([Body weight (kg)]0.425×[Body height (cm)]0.725)×0.007184

[3] = Quantification of plasma, tumor and retinal tissue exposure in tumor-bearing rats; type: in vivo, F344 nude rats
Procedure: After the administration, plasma, the retina, and tumor were collected according to a sampling schedule. The retina or tumor samples were homogenized in phosphate-buffered saline. The plasma and the homogenized samples were analyzed by liquid chromatography-tandem mass spectrometry or high-performance liquid chromatography. The pharmacokinetics of the compound 1 were calculated by use of the non-compartmental analysis method (Methods Mol Biol 2012; 929: 377-89).

solid cancer patients [4] = assay: Phase I study in solid cancer patients: tumor response by RECIST Guideline Version 1.1; type: in vivo, human
Procedure: as §1, §2
(§3) After determination of MTD for once-daily administration, administration was performed by once-daily administration, by alternate-day administration (repeated administration at cycles each involving one-day administration and one-day withdrawal period on the next day), or by a schedule involving administration for 5 consecutive days and 2-day withdrawal period, and evaluation was conducted.
An antitumor effect on tumor was determined according to RECIST Guideline Version 1.1 (European Journal of Cancer 45 (2009) 228-247), and tumor shrinkage was evaluated by comprehensive evaluation on target lesions (lesions equal to or larger than a measurable size depending on a slice width in a diagnosis method (MRI, CT, X ray, etc.) measured at the time of enrollment) and non-target lesions (all lesions except for the target lesions).
The overall response of each case was evaluated according to the following criteria, and the best overall response was evaluated after confirmation of duration of the effect.
The best overall response was evaluated according to the following 5 levels. • CR: After reaching CR first, the CR status was maintained in examination performed after a lapse of at least 4 weeks or longer. • PR: After reaching PR first, the PR status was maintained in examination performed after a lapse of at least 4 weeks or longer. • SD: Neither CR nor PR was attained and no PD was confirmed in examination performed after a lapse of at least 6 weeks or longer from the start of administration. • PD: PD of target lesions or non-target lesions was confirmed without satisfying the criterion of CR, PR and SD, or the appearance of a new lesion was confirmed.
Proportion of cases with best overall response of CR and PR in an analyte population.
Proportion of cases with best overall response of CR, PR, Non-CR/non-PD, or SD continued for 12 weeks or longer in an analyte population.
Patients with non-small cell lung cancer, gastrointestinal stromal tumor, thymic cancer, biliary tract cancer, breast cancer, adenoid cystic cancer, pancreatic cancer, stomach cancer, ovary cancer, skin cancer, neuroblastoma, head and neck cancer, esophageal cancer, kidney cancer, colorectal cancer, sarcoma, mesothelioma, or the like entered the test.

[5] = Quantification of plasma and retinal tissue exposure after intravenous administration; type: in vivo, F344 nude rats; conditions: 30 minutes and 6 hours after administration
Procedure: Method: Compound 1 was administered to tumor-bearing F344 nude rats by intravenous administration. Plasma and the retina were collected 30 minutes and 6 hours after the administration. The retina samples were homogenized in phosphate-buffered saline. The plasma and the homogenized samples were analyzed by liquid chromatography-tandem mass spectrometry or high-performance liquid chromatography. The pharmacokinetics of the compound 1 were calculated by use of the non-compartmental analysis method (Methods Mol Biol 2012; 929: 377-89).

[6] = system: patients with local progressive unresectable or metastatic GIST; assay: Study in GIST patients: progression-free survival (RECIST Guideline Version 1.1); type: in vivo, human; conditions: 160 mg/body/day oral, 5 consecutive days and 2-day withdrawal period
Procedure: (§4) Purpose: In order to evaluate the effectiveness and safety, etc. of compound 1, this study was conducted for the purpose of evaluating the effectiveness and safety, etc. of the compound 1, targeting patients with local progressive unresectable or metastatic GIST who received the administration of imatinib, sunitinib or regorafenib in the past.
(§5) From the results of the study of Example 1, this study was carried out according to a schedule involving administration for 5 consecutive days and 2-day withdrawal period. The daily dose of the compound 1 was 160 mg/body/day for oral administration. One cycle was set to 21 days. The administration of the compound 1 was continued until the end date of the clinical trial or any of predetermined criterion for discontinuation were applicable.
For the evaluation of an antitumor effect, CT scan was carried out before the start of administration, every 3 weeks for subsequent 6 weeks, every 6 weeks for subsequent 3 months, and then every 8 weeks until the end of the test. Progression-free survival (PFS) stipulated by RECIST Guideline Version 1.1 was evaluated.

[7] = system: patients with local progressive unresectable or metastatic GIST; assay: Study in GIST patients: safety, tolerability and eye disorder; type: in vivo, human; conditions: 160 mg/body/day oral
Procedure: as §4, §5
For the evaluation of eye disorder, interview, visual acuity examination (corrected), intraocular pressure measurement, fundus examination, slit-lamp microscopy, optical coherence tomography (OCT), and color perception examination were carried out at the time of a baseline within 14 days before enrollment and at the completion of administration of the study drug.
Interview, visual acuity examination (corrected), intraocular pressure measurement, fundus examination, optical coherence tomography (OCT), slit-lamp microscopy, and color perception examination were further carried out as much as possible every 12 weeks after the start of administration of the study drug and every 24 weeks on week 48 or later (within ±7 days).
In addition to the determined ophthalmologic examination described above, ophthalmologic examination was appropriately carried out when eye problems were found by regular interview by clinical investigators or by declaration from patients themselves.

rat eye tissue = assay: Histopathological study in rat eye tissue (hematoxylin and eosin, TUNEL); type: in vivo, Sprague-Dawley (SD) rats
solid cancer patients [8] = assay: Phase I study in solid cancer patients: eye disorder related to treatment (ophthalmologic examination, CTCAE Ver. 4.03); type: in vivo
Procedure: The initial dose of Step 2 (level 1 of Step 2) was set to MTD (mg/m^2/day) of Step 1. The study was continued until the disease progressed or an intolerable adverse event occurred.
as §3
In this test, ophthalmologic examination was conducted in order to evaluate eye disorder.
The ophthalmologic examination was carried out before enrollment, in the duration of administration, and during follow-up. In the duration of administration, ophthalmologic interview, visual acuity examination (corrected), intraocular pressure examination, fundus examination, slit-lamp microscopy, optical coherence tomography (OCT), and color perception examination were carried out for 21 days±1 day from the start of administration. Observation and examination before enrollment were carried out as immediately before the enrollment as possible. In addition to the determined ophthalmologic examination described above, ophthalmologic examination was appropriately carried out when eye problems were found by regular interview by clinical investigators or by declaration from patients themselves.

[9] = administration for consecutive days
[10] = oral administration, tumor-bearing rats
[11] = rats, administered for consecutive days (Non-Patent Literature 6)
[12] = 5 consecutive days and 2-day withdrawal period
[13] = 12 mg/kg/day oral every day for 2 weeks, eyes collected 24 hours after final dose
[14] = QD Step 1 Dose escalation, Lv. 6 (107.5 mg/m^2) n = 6
[15] = QOD Step 2 Expansion (340 mg/body) n = 6
[16] = 10.0 mg/kg/day intravenous three times a week for 2 weeks, eyes collected 24 hours after final dose

## CNC(=O)c1cc(Oc2ccc(NC(=O)Nc3ccc(Cl)c(C(F)(F)F)c3)c(F)c2)ccn1 [regorafenib]
[1]
  median PFS: 4.8 month

## CCc1cc(C(N)=O)ccc1-n1nc(C(C)C)c2c(-n3cnc(-c4cnn(C)c4)c3)ccnc21 [compound 1, 3-Ethyl-4-[3-(1-methylethyl)-4-[4-(1-methyl-1H-pyrazol-4-yl)-1H-imidazol-1-yl]-1H-pyrazolo[3,4-b]pyridin-1-yl]benzamide]
Solid cancer patients [2]; [9]
  MTD converted to the fixed dose: 160 mg/body/day
  MTD: 107.5 mg/m^2/day
Solid cancer patients [2]; alternate-day administration
  MTD converted to the fixed dose: 340 mg/body/day
  MTD: 210 mg/m^2/day
[3]; [10]
  distribution in tumor, retina and plasma: larger amount in tumor than in the retina and plasma
  time to removal from the retina: ≤ 24 h
[3]; [11]
  time to elimination from the rat retina: ≤ 24 h
Solid cancer patients [4]; QD × 5, n = 18
  DCR (≥12 weeks), % of patients: (38.9) %
  DCR (≥12 weeks), number of patients: 7
  NE, % of patients: (5.6) %
  NE, number of patients: 1
  PD, % of patients: (44.4) %
  PD, number of patients: 8
  PR, % of patients: (0.0) %
  PR, number of patients: 0
  RR, % of patients: (0.0) %
  RR, number of patients: 0
Solid cancer patients [4]; QD, n = 16
  DCR (≥12 weeks), % of patients: (31.3) %
  DCR (≥12 weeks), number of patients: 5
  NE, % of patients: (12.5) %
  NE, number of patients: 2
  PD, % of patients: (31.3) %
  PD, number of patients: 5
  PR, % of patients: (12.5) %
  PR, number of patients: 2
  RR, % of patients: (12.5) %
  RR, number of patients: 2
Solid cancer patients [4]; QOD, n = 26
  DCR (≥12 weeks), % of patients: (14.4) %
  DCR (≥12 weeks), number of patients: 4
  NE, % of patients: (3.8) %
  NE, number of patients: 1
  PD, % of patients: (57.7) %
  PD, number of patients: 15
  PR, % of patients: (3.8) %
  PR, number of patients: 1
  RR, % of patients: (3.8) %
  RR, number of patients: 1
[5]
  distribution in retina versus plasma: lower in the retina than in plasma
[6]
  median PFS: 4.4 months
[7]; [12]
  frequency of occurrence of eye disorder: 20%
  grade of eye disorder in all the patients: grade 1
  tolerability: good tolerability
[7]; 5 consecutive days and 2-day withdrawal, reversible by discontinuation or decrease in dose
  related adverse events observed: digestive tract disorder and elevated plasma creatinine levels
Rat eye tissue; [13]
  elevation of the number of TUNEL-positive apoptotic cells: not observed
  histopathological change in the outer nuclear layer of the retina: did not cause any histopathological change
Rat eye tissue; [11]
  ocular toxicity: without exhibiting ocular toxicity
Solid cancer patients [8]; QD Step 1 Dose escalation, Lv. 1 to 5 (4.8-76.8 mg/m^2) n = 7
  Eye Disorder, G2: 1 (14.3) n (%)
Solid cancer patients [8]; [14]
  Eye Disorder, G2: 2 (33.3) n (%)
  Eye disorder, G1: 3 (50.0) n (%)
Solid cancer patients [8]; QD Step 1 Dose escalation, Lv. 7 (150.5 mg/m^2) n = 3
  Eye Disorder, ≥G3: 2 (66.7) n (%)
Solid cancer patients [8]; QD × 5 (5-day administration 2-day drug holiday) Step 1 Expansion (160 mg/body) n = 19
  Eye disorder, G1: 5 (26.3) n (%)
Solid cancer patients [8]; QOD Step 2 Dose escalation, Lv. 1 to 2 (107.5-150.5 mg/m^2) n = 9
  Eye disorder, G1: 2 (22.2) n (%)
Solid cancer patients [8]; QOD Step 2 Dose escalation, Lv. 3 (210.7 mg/m^2) n = 6
  Eye disorder, G1: 1 (16.7) n (%)
Solid cancer patients [8]; QOD Step 2 Dose escalation, Lv. 4 (295.0 mg/m^2) n = 5
  Eye disorder, G1: 1 (16.7) n (%)
Solid cancer patients [8]; [15]
  Eye Disorder, G2: 1 (20.0) n (%)
  Eye disorder, G1: 3 (60.0) n (%)
Solid cancer patients [8]; alternate-day administration group
  degree of eye disorder at MTD: limited to grade 1
Solid cancer patients [8]; group given administration for 5 consecutive days and 2-day withdrawal period
  degree of eye disorder at MTD: limited to grade 1
Solid cancer patients [8]; human, in vivo
  Eye Disorder, G2: 4 (6.6) n (%)
  Eye Disorder, ≥G3: 2 (3.3) n (%)
  Eye disorder, G1: 14 (23.0) n (%)
Solid cancer patients [8]; phase I clinical trial, administration for consecutive days
  side effect on vision: caused a side effect for vision impairment

## CCNC(=O)c1noc(-c2cc(C(C)C)c(O)cc2O)c1-c1ccc(CN2CCOCC2)cc1 [NVP-AUY922, reference compound]
[3]; intravenous administration, tumor-bearing rats
  presence in the retina 24 hours after administration: detected from the retina even 24 hours after administration
Rat eye tissue; [16]
  histopathological change in the outer nuclear layer of the retina: marked degeneration and disarrangement
  number of TUNEL-positive apoptotic cells: considerably increase
